These results are taken from US20250101028A1, “HETEROCYCLIC COMPOUNDS, COMPOSITIONS THEREOF, AND METHODS OF TREATMENT THEREWITH” (BeiGene, Ltd., priority 2022, published 2025).

Assay [1] has as its target T1, GST-tagged GDP-loaded KRAS G12V (amino acids 1-169) (Homo sapiens, UniProt P01116, G12V).
T1 construct: GST-tagged GDP-loaded KRAS G12V (amino acids 1-169); made in house; host or cells: E. coli
Put plainly: KRAS G12V probe displacement assay (TR-FRET). Format: binding. The settings on record: displacement of biotinylated probe 2 from GDP-loaded KRAS G12V. Put shortly: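 Probe displacement read as TR-FRET (665/620 nm) with anti-GST-Tb and streptavidin-XL665, IC50 from four-parameter logistic fit. Compound preincubated 1 h, 24 °C, with E. coli-expressed KRAS 1-169: WT at 3 nM with 60 nM probe 1, G12V at 2 nM with 2.5 nM probe 2, pH 7.5.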
On the technique in general: Time-resolved FRET reads energy transfer from a long-lived donor to a nearby acceptor.

The test system of assay [2] is pERK1/2(THR202/TYR204) level, SW620 cell line. Put plainly: KRAS G12V pERK assay (HTRF). Type of assay: cell-based. The settings on record: Homo sapiens, SW-620; SW620 cells, 2 hrs compound treatment. As for the experimental part: SW620 cell line was used in this study. Cells were maintained in RPMI 1640 supplemented with 10% fetal bovine serum (Thermo Fisher), 50 units/mL penicillin and streptomycin (Thermo Fisher) and kept at 37° C. in a humidified atmosphere of 5% CO2 in air. Cells were reinstated from frozen stocks that were laid down within 30 passages from the original cells purchased. 40000 cells per well were seeded into a 96-well plate and incubated overnight. Cells were treated with a 10-point dilution series. The final compound concentration is from […]. After 2 hrs compound treatment, cells were lysed, and the pERK1/2(THR202/TYR204) level in the cell lysates was detected by HTRF kit (Cisbio). In brief, a total of 16 μL of cell lysate from each well of a 96-well plate was transferred to a 384-well white assay plate. Lysate from each well was incubated with 2 μL of Eu3+− cryptate (donor) labeled anti-phospho-ERK1/2 and 2 μL of D2 (acceptor) labeled anti-phospho-ERK1/2 antibodies (Cisbio) overnight in dark at room temperature. When donor and acceptor are in close proximity, excitation of the donor with laser triggers a Fluorescence Resonance Energy Transfer (FRET) towards the acceptor, which in turn fluoresces at 655 nm wavelength. FRET signals were measured using a PHERAstar FSX reader (BMG Labtech). IC50 determination was performed by fitting the curve of percent inhibition versus the log of the inhibitor concentration using Dotmatics.

The structures appear in SMILES notation.

T1 sequence (P01116 1-169 isoform P01116-2 G12V): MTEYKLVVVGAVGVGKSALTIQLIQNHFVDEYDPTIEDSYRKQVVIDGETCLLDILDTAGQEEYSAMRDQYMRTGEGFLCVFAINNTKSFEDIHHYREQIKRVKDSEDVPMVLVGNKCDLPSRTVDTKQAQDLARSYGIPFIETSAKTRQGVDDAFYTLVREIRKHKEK

As to `C[C@@H]1C[C@@H](C#N)CCN1c1nc(OC[C@@]23CCCN2C[C@H](F)C3)nc2c(F)c(-c3ccc(F)c4sc(N)c(C#N)c34)c(Cl)cc12` [Example 101, (2R,4S)-1-(7-(2-amino-3-cyano-7-fluorobenzo[b]thiophen-4-yl)-6-chloro-8-fluoro-2-(((2R,7aS)-2-fluorotetrahydro-1H-pyrrolizin-7a(5H)-yl)methoxy)quinazolin-4-yl)-2-methylpiperidine-4-carbonitrile], the values for the IC50 in assay [1] and in assay [2] were 0.28 nM and 11 nM, respectively.

With `Nc1nc2c(-c3c(C(F)(F)F)cc4c(N5CC(F)C5)nc(OC[C@@]56CCCN5C[C@H](F)C6)nc4c3F)ccc(F)c2s1` [Example 37, 7-fluoro-4-(8-fluoro-4-(3-fluoroazetidin-1-yl)-2-(((2R,7aS)-2-fluorotetrahydro-1H-pyrrolizin-7a(5H)-yl)methoxy)-6-(trifluoromethyl)quinazolin-7-yl)benzo[d]thiazol-2-amine], the values for the IC50 in assay [1] and in assay [2] were 6 nM and 449 nM, respectively.

`CC1C(C#N)CN1c1nc(OC[C@@]23CCCN2C[C@H](F)C3)nc2c(F)c(-c3ccc(F)c4sc(N)nc34)c(C(F)(F)F)cc12` (stereo partly drawn) [Example 43, 1-(7-(2-amino-7-fluorobenzo[d]thiazol-4-yl)-8-fluoro-2-(((2R,7aS)-2-fluorotetrahydro-1H-pyrrolizin-7a(5H)-yl)methoxy)-6-(trifluoromethyl)quinazolin-4-yl)-2-methylazetidine-3-carbonitrile]: the IC50 (commonly the concentration needed to halve the response being measured) in assay [1] worked out at 7.1 nM; in assay [2], 356 nM.

As to `N#CC1CCCN(c2nc(OC[C@@]34CCCN3C[C@H](F)C4)nc3c(F)c(-c4ccc(F)c5sc(N)nc45)c(C(F)(F)F)cc23)CC1` (stereo partly drawn) [Example 82, 1-(7-(2-amino-7-fluorobenzo[d]thiazol-4-yl)-8-fluoro-2-(((2R,7aS)-2-fluorotetrahydro-1H-pyrrolizin-7a(5H)-yl)methoxy)-6-(trifluoromethyl)quinazolin-4-yl)azepane-4-carbonitrile], the IC50 in assay [1] turned out to be 0.74 nM; in assay [2] it was 199 nM.

Consider `Nc1nc2c(-c3c(C(F)(F)F)cc4c(N5CCC5)nc(OC[C@@]56CCCN5C[C@H](F)C6)nc4c3F)ccc(F)c2s1` [Example 33, 4-(4-(azetidin-1-yl)-8-fluoro-2-(((2R,7aS)-2-fluorotetrahydro-1H-pyrrolizin-7a(5H)-yl)methoxy)-6-(trifluoromethyl)quinazolin-7-yl)-7-fluorobenzo[d]thiazol-2-amine], for which the IC50 in assay [1] came out at 2.6 nM; in assay [2] it was 333 nM.

Regarding `N#CC1CN(c2nc(OC[C@@]34CCCN3C[C@H](F)C4)nc3c(F)c(-c4ccc(F)c5sc(N)nc45)c(C(F)(F)F)cc23)C1` [Example 39, 1-(7-(2-amino-7-fluorobenzo[d]thiazol-4-yl)-8-fluoro-2-(((2R,7aS)-2-fluorotetrahydro-1H-pyrrolizin-7a(5H)-yl)methoxy)-6-(trifluoromethyl)quinazolin-4-yl)azetidine-3-carbonitrile], the IC50 in assay [1] turned out to be 5.5 nM; in assay [2] it was 410 nM.

`Nc1nc2c(-c3c(C(F)(F)F)cc4c(N[C@H]5C[C@@H](O)C5)nc(OC[C@@]56CCCN5C[C@H](F)C6)nc4c3F)ccc(F)c2s1` [Example 11, cis-3-((7-(2-amino-7-fluorobenzo[d]thiazol-4-yl)-8-fluoro-2-(((2R,7aS)-2-fluorotetrahydro-1H-pyrrolizin-7a(5H)-yl)methoxy)-6-(trifluoromethyl)quinazolin-4-yl)amino)cyclobutan-1-ol] gave an IC50 in assay [1] of 4.4 nM.

In assay [1], `CC1C(O)CN1c1nc(OC[C@@]23CCCN2C[C@H](F)C3)nc2c(F)c(-c3ccc(F)c4sc(N)nc34)c(C(F)(F)F)cc12` (stereo partly drawn) [Example 47, 1-(7-(2-amino-7-fluorobenzo[d]thiazol-4-yl)-8-fluoro-2-(((2R,7aS)-2-fluorotetrahydro-1H-pyrrolizin-7a(5H)-yl)methoxy)-6-(trifluoromethyl)quinazolin-4-yl)-2-methylazetidin-3-ol] yielded an IC50 of 1.9 nM.

On to `Nc1nc2c(-c3c(C(F)(F)F)cc4c(N5CC[C@@H](F)C5)nc(OC[C@@]56CCCN5C[C@H](F)C6)nc4c3F)ccc(F)c2s1` [Example 51, 7-fluoro-4-(8-fluoro-4-((R)-3-fluoropyrrolidin-1-yl)-2-(((2R,7aS)-2-fluorotetrahydro-1H-pyrrolizin-7a(5H)-yl)methoxy)-6-(trifluoromethyl)quinazolin-7-yl)benzo[d]thiazol-2-amine], for which the IC50 in assay [1] turned out to be 11 nM.

Molecule `Nc1nc2c(-c3c(C(F)(F)F)cc4c(N5CCC6(CC5)CNC(=O)C6)nc(OC[C@@]56CCCN5C[C@H](F)C6)nc4c3F)ccc(F)c2s1` [Example 96, 8-(7-(2-amino-7-fluorobenzo[d]thiazol-4-yl)-8-fluoro-2-(((2R,7aS)-2-fluorotetrahydro-1H-pyrrolizin-7a(5H)-yl)methoxy)-6-(trifluoromethyl)quinazolin-4-yl)-2,8-diazaspiro[4.5]decan-3-one] displayed an IC50 in assay [1] of 1.5 nM.

Regarding `CC[C@@H]1CCCN1c1nc(OC[C@@]23CCCN2C[C@H](F)C3)nc2c(F)c(-c3ccc(F)c4sc(N)nc34)c(C(F)(F)F)cc12` [Example 58, 4-(4-((R)-2-ethylpyrrolidin-1-yl)-8-fluoro-2-(((2R,7aS)-2-fluorotetrahydro-1H-pyrrolizin-7a(5H)-yl)methoxy)-6-(trifluoromethyl)quinazolin-7-yl)-7-fluorobenzo[d]thiazol-2-amine], the IC50 in assay [1] came to 40 nM.

`Nc1nc2c(-c3c(C(F)(F)F)cc4c(NC5CC(F)(F)C5)nc(OC[C@@]56CCCN5C[C@H](F)C6)nc4c3F)ccc(F)c2s1` [Example 17, 4-(4-((3,3-difluorocyclobutyl)amino)-8-fluoro-2-(((2R,7aS)-2-fluorotetrahydro-1H-pyrrolizin-7a(5H)-yl)methoxy)-6-(trifluoromethyl)quinazolin-7-yl)-7-fluorobenzo[d]thiazol-2-amine] displayed a half-inhibitory concentration (IC50) in assay [1] of 43 nM.

In turn, `CCN1CC2(CCN(c3nc(OC[C@@]45CCCN4C[C@H](F)C5)nc4c(F)c(-c5ccc(F)c6sc(N)nc56)c(C(F)(F)F)cc34)CC2)OC1=O` [Example 88, 8-(7-(2-amino-7-fluorobenzo[d]thiazol-4-yl)-8-fluoro-2-(((2R,7aS)-2-fluorotetrahydro-1H-pyrrolizin-7a(5H)-yl)methoxy)-6-(trifluoromethyl)quinazolin-4-yl)-3-ethyl-1-oxa-3,8-diazaspiro[4.5]decan-2-one] displayed an IC50 in assay [1] of 1.4 nM.

`Nc1nc2c(-c3c(C(F)(F)F)cc4c(NC5CCC(F)C5)nc(OC[C@@]56CCCN5C[C@H](F)C6)nc4c3F)ccc(F)c2s1` (stereo in doubt) [Example 25, 7-fluoro-4-(8-fluoro-4-(((1S,3R)-3-fluorocyclopentyl)amino)-2-(((2R,7aS)-2-fluorotetrahydro-1H-pyrrolizin-7a(5H)-yl)methoxy)-6-(trifluoromethyl)quinazolin-7-yl) benzo[d]thiazol-2-amine] registered an IC50 in assay [1] of 38 nM.

On to `Cc1cc(N)nc(-c2c(Cl)cc3c(N4CC[C@H](O)C4)nc(OC[C@@]45CCCN4C[C@H](F)C5)nc3c2F)c1C(F)(F)F` [Example 102, (3S)-1-(7-(6-amino-4-methyl-3-(trifluoromethyl)pyridin-2-yl)-6-chloro-8-fluoro-2-(((2R,7aS)-2-fluorotetrahydro-1H-pyrrolizin-7a(5H)-yl)methoxy)quinazolin-4-yl)pyrrolidin-3-ol], for which the IC50 in assay [1] worked out at 46 nM.

`CO[C@H]1C[C@H](Nc2nc(OC[C@@]34CCCN3C[C@H](F)C4)nc3c(F)c(-c4ccc(F)c5sc(N)nc45)c(C(F)(F)F)cc23)C1` [Example 14, 7-fluoro-4-(8-fluoro-2-(((2R,7aS)-2-fluorotetrahydro-1H-pyrrolizin-7a(5H)-yl)methoxy)-4-(((trans)-3-methoxycyclobutyl)amino)-6-(trifluoromethyl)quinazolin-7-yl)benzo[d]thiazol-2-amine]: in assay [1], the IC50 turned out to be 13 nM.

`Nc1nc2c(-c3c(C(F)(F)F)cc4c(N[C@H]5C[C@H](CO)C5)nc(OC[C@@]56CCCN5C[C@H](F)C6)nc4c3F)ccc(F)c2s1` [Example 21, ((trans)-3-((7-(2-amino-7-fluorobenzo[d]thiazol-4-yl)-8-fluoro-2-(((2R,7aS)-2-fluorotetrahydro-1H-pyrrolizin-7a(5H)-yl)methoxy)-6-(trifluoromethyl)quinazolin-4-yl)amino)cyclobutyl)methanol] returned an IC50 in assay [1] of 4.1 nM.

In assay [1], `Nc1cc(Cl)c(C(F)(F)F)c(-c2ncc3c(N4CCO[C@H](CO)C4)nc(OC[C@@]45CCCN4C[C@H](F)C5)nc3c2F)c1` [Example 120, ((2S)-4-(7-(5-amino-3-chloro-2-(trifluoromethyl)phenyl)-8-fluoro-2-((2-fluorotetrahydro-1H-pyrrolizin-7a(5H)-yl)methoxy)pyrido[4,3-d]pyrimidin-4-yl)morpholin-2-yl)methanol] showed an IC50 of 6.6 nM.
